Measured values as given in ChEMBL document CHEMBL1149578, “Design, synthesis, and discovery of stilbene derivatives based on lithospermic acid B as potent protein tyrosine phosphatase 1B inhibitors” (Bioorg Med Chem Lett, 2007).
Activity calls are given as the source filed them. No cut-off for these calls is given here.

target: T1, Tyrosine-protein phosphatase non-receptor type 1 (Homo sapiens, UniProt P18031); assay: (§1) Inhibition of PTP1B by colorimetric assay
T1 sequence (P18031 whole entry): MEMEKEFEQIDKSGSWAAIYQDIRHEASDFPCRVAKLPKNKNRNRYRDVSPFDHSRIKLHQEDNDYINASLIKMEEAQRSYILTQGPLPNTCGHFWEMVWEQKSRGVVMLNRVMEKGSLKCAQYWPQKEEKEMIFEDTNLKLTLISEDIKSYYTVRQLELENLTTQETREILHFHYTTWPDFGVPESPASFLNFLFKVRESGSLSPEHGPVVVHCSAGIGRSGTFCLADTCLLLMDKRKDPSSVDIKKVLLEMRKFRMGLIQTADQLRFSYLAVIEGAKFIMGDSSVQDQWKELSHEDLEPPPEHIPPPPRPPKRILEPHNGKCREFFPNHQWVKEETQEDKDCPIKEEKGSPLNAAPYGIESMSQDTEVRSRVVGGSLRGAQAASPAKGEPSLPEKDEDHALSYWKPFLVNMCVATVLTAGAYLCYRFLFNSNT

Compound	IC50 [µM]
O=[N+]([O-])c1ccc(/C=C/c2ccc(O)c(O)c2)c([N+](=O)[O-])c1	190
CCCCCCCCCCCCCCCC(=O)C1=C(O)[C@@H](CO)OC1=O	45
O=[N+]([O-])c1ccc(/C=C/c2cccc(O)c2O)c([N+](=O)[O-])c1	168
COC(=O)/C=C/c1ccc(/C=C/c2ccc(O)c(O)c2)cc1	14.9
O=C(Nc1ccccc1)c1ccc(/C=C/c2ccc(O)c(O)c2)cc1	27.2

Now from value to molecule:

IC50 [µM]	Compound
101	O=Cc1ccc(/C=C/c2ccc(O)c(O)c2)cc1
35.4	O=C(NCC1CCCO1)c1ccc(/C=C/c2ccc(O)c(O)c2)cc1 (stereo unspecified)
25.6	COC(=O)c1ccc(/C=C/c2ccc(O)c(O)c2)cc1
260	OCc1ccc(/C=C/c2ccc(O)c(O)c2)cc1
138	OCc1ccc(/C=C\c2ccc(O)c(O)c2)cc1

target: T2, Tyrosine-protein phosphatase non-receptor type 1 (Homo sapiens) (UniProt P18031); assay: as §1
T2 sequence (whole entry): T1 sequence (P18031 whole entry)

Compound	Activity
O=[N+]([O-])c1ccc(/C=C/c2cccc(O)c2)c([N+](=O)[O-])c1	inactive
C(=C/c1ccccc1)/c1ccccc1	inactive
COC(=O)C=Cc1ccc(/C=C\c2ccc(O)c(O)c2)cc1	inactive
COc1ccc(/C=C/c2ccc(O)cc2)cc1OC	inactive
O=C(NCC1CCCO1)c1ccc(/C=C\c2ccc(O)c(O)c2)cc1 (stereo unspecified)	inactive
CCN(CC)C(=O)/C=C/c1ccc(O)c(O)c1	inactive
O=C(/C=C/c1ccc(O)c(O)c1)Nc1ccccc1	inactive

Now from value to molecule:

Activity	Compound
inactive	O=C(O)/C=C/c1ccc(O)c(O)c1
inactive	COC(=O)/C=C/c1ccc(/C=C/c2ccc(OC)c(OC)c2)cc1
inactive	COC(=O)c1ccc(/C=C/c2ccc(OC)c(OC)c2)cc1
inactive	COc1cc(/C=C/C(=O)CC(=O)/C=C/c2ccc(O)c(OC)c2)ccc1O
